Assay results taken from US6350749B1, “Aminoguanidine hydrazone derivatives, process for producing the same and drugs thereof” (Takeda Chemical Industries, Ltd., priority 1998, dated 2002).

Structure (SMILES) | melting point
Cl.N=C(N)NN=C1CC(c2ccccc2)Cc2c1ccn2C(=O)c1ccccc1 (stereo not drawn) | 168 °C (dec.)
Cc1cc(Cl)sc1C1CC(=NNC(=N)N)c2c(C)ccnc2C1.Cl (stereo not drawn) | 193 to 196 °C
Cc1ccnc2c1C(=NNC(=N)N)CC(c1cc(Br)sc1Br)C2.Cl (stereo not drawn) | 272 to 273 °C
CS(=O)(=O)O.N=C(N)NN=C1CC(c2ccccc2Cl)Cc2nncc(C(F)(F)F)c21 (stereo not drawn) | 207 to 208 °C
Cc1cc(=O)[nH]c2c1C(=NNC(=N)N)CC(c1ccccc1Cl)C2.Cl (stereo not drawn) | ≥ 300 °C
Cc1ccc(F)cc1C1CC(=NNC(=N)N)c2c(C)ccnc2C1.Cl (stereo not drawn) | 202 to 205 °C
COc1ccc(F)cc1C1CC(=NNC(=N)N)c2c(C)ccnc2C1.Cl (stereo not drawn) | ≥ 300 °C
Cc1ccccc1C1CC(=NNC(=N)N)c2c(C)n[nH]c2C1.Cl (stereo not drawn) | 211 °C (dec.)
Cc1n[nH]c2c1C(=NNC(=N)N)CC(c1ccccc1O)C2.Cl (stereo not drawn) | 168 °C (dec.)
Cc1coc2c1C(=NNC(=N)N)CC(c1ccc(Br)cc1)C2.Cl (stereo not drawn) | 235 °C (dec.)
Cc1coc2c1/C(=N/NC(=N)N)CC(c1ccccc1C(F)(F)F)C2.Cl (stereo not drawn) | 275 °C (dec.)
Cc1coc2c1/C(=N/NC(=N)N)CC(c1ccccc1F)C2.Cl (stereo not drawn) | 288 °C (dec.)
Cc1coc2c1/C(=N/NC(=N)N)CC(c1cccc(Cl)c1Cl)C2.Cl (stereo not drawn) | 286 °C (dec.)
Cc1coc2c1/C(=N/NC(=N)N)CC(c1ccccc1Br)C2.Cl (stereo not drawn) | 296 °C (dec.)
Cc1ccnc2c1C(=NNC(=N)N)CC(c1ccccc1Br)C2.Cl (stereo not drawn) | 233 °C (dec.)
Cc1ccnc2c1C(=NNC(=N)N)CC(c1ccco1)C2.Cl (stereo not drawn) | ≥ 300 °C
Cc1cc(C)c2c(n1)CC(c1ccccn1)CC2=NNC(=N)N.Cl (stereo not drawn) | 201 °C (dec.)
Cc1ncnc2c1/C(=N/NC(=N)N)CC(c1ccccc1Cl)C2.Cl (stereo not drawn) | 284 °C (dec.)
Cc1ccnc2c1C(=NNC(=N)NO)CC(c1cccc(Cl)c1Cl)C2.Cl (stereo not drawn) | 196 to 198 °C (dec.)
Cc1ccnc2c1C(=NNC(=N)NO)CC(c1ccco1)C2.Cl (stereo not drawn) | 196 to 198 °C (dec.)
Cl.N=C(N)NN=C1CC(c2ccccc2)Cc2[nH]c(=O)ccc21 (stereo not drawn) | ≥ 300 °C

Results, then the molecule that gave them:

melting point | Structure (SMILES)
196 to 197 °C (dec.) | Cc1ccnc2c1C(=NNC(=N)NO)CC(c1cc(Cl)sc1Cl)C2.Cl (stereo not drawn)
185 to 187 °C | Cc1ccnc2c1C(=NNC(=N)NO)CC(c1ccccc1Cl)C2.Cl (stereo not drawn)
282 °C (dec.) | Cc1ccnc2c1C(=NNC(=N)N)CC(c1nccs1)C2.Cl (stereo not drawn)
184 to 187 °C | Cc1ccnc2c1C(=NNC(=N)N)CC(c1sc(Cl)cc1Cl)C2.Cl (stereo not drawn)
197 to 198 °C | Cc1ccnc2c1C(=NNC(=N)NO)CC(c1ccsc1Br)C2.Cl (stereo not drawn)
156 to 157 °C | Cc1cc(=O)n(C)c2c1C(=NNC(=N)N)CC(c1ccsc1)C2.Cl (stereo not drawn)
192 to 194 °C | Cc1c2c(nn1-c1ccccc1)CC(c1ccccc1Cl)CC2=NNC(=N)N.Cl (stereo not drawn)
283 to 284 °C | Cc1cn[n+]([O-])c2c1C(=NNC(=N)N)CC(c1ccccc1Cl)C2.Cl (stereo not drawn)
287 °C (dec.) | Cc1n[nH]c2c1C(=NNC(=N)N)CC(c1cc(Cl)ccc1Cl)C2.Cl (stereo not drawn)
250 °C (dec.) | Cc1coc2c1C(=NNC(=N)N)CC(c1ccccc1)C2.Cl (stereo not drawn)
260 °C (dec.) | Cc1ccc(C2CC(=NNC(=N)N)c3c(C)coc3C2)cc1.Cl (stereo not drawn)
182 °C (dec.) | COc1ccc(C2CC(=NNC(=N)N)c3c(C)coc3C2)cc1.Cl (stereo not drawn)
278 °C (dec.) | Cc1coc2c1C(=NNC(=N)N)CC(c1ccc(F)cc1F)C2.Cl (stereo not drawn)
282 °C (dec.) | Cl.N=C(N)N/N=C1\CC(c2ccco2)Cc2occ(C(F)(F)F)c21 (stereo not drawn)
277 °C (dec.) | CCOC(=O)c1coc2c1/C(=N/NC(=N)N)CC(c1ccccc1Cl)C2.Cl (stereo not drawn)
155 °C (dec.) | CCCn1ccc2c1CC(c1ccccc1)CC2=NNC(=N)N.Cl (stereo not drawn)
242 to 244 °C | Cc1nc(C)c2c(n1)CC(c1ccccc1Cl)C/C2=N\NC(=N)N.Cl (stereo not drawn)
210 to 212 °C (dec.) | Cc1ccc(C2CC(=NNC(=N)NO)c3c(C)ccnc3C2)s1.Cl (stereo not drawn)
